We go through seven compounds from patent publication US7592154B2, “Modulating SOS response induction by antimicrobial agents” (The Board of Trustees of the Leland Stanford Junior …, priority 2005, dated 2009).

One test relates to citC gene. Description: quantitative RT-PCR of citC expression. In kind it is cell-based, E. coli. The conditions noted are these: SC1088, 30° C., ampicillin 4 μg/ml for 4 hours (FIG. 1C). From the text: (§1) FIGS. 1A-1C. Structure and transcripts of the dpiBA operon. (A) The dpiB and dpiA genes are aligned in the 5′-3′ direction; citC is 5′ of the dpiBA promoter/operator region and is transcribed divergently from it. The segment of the dpiBA operon included in plasmid pHI1508 is indicated. (B) Agarose gel electrophoresis showing bands generated by reverse transcription PCR amplification of E. coli SC1088 RNA using pairs of oligonucleotide primers corresponding to sequences within dpiB (lane 1, primers a+b), dpiA (lane 2, primers c+d), or both genes (lane 3, primers a+d). Locations of primer sequences are indicated in (A). […] Amounts of template RNA used and loaded onto gels were equal, as assessed by intensity of 16S rRNA bands (bottom panel).

The subject of the next test is RecA protein. The test is described as follows: Western blot with anti-RecA antibody. In kind it is cell-based, E. coli. The conditions noted are these: one hour of exposure, relative to absence of induction. The source says: Chemiluminescence of bands was quantitated using a BioRad Versadoc 1000 instrument.
(In general: In western blotting, separated proteins are transferred to a membrane and probed.)

The test system of test [1] is E. coli SC1088 wild-type and dpiA, recA, sfiA null mutants. Description: survival of bacterial cultures exposed to antibiotic (cfu counting). In kind it is cell-based. The conditions noted are these: for effectiveness (survival) in recA mutant cells versus wild type SC1088: naladixic acid 5 μg/ml, pipericillin 1 μg/ml, kanamycin 5 μg/ml (FIGS. 5A-5C). How it is done:
FIG. 4. Effect of SOS response induction on survival of bacterial cells expressing DpiA during β-lactam exposure. […] Survival data are also shown for strains containing null mutations in recA (open diamonds), dpiA (open circles), or sfiA (open triangles). […] Percent survival was determined by counting of colony forming units (cfu's), at least 200 colonies were counted per time point, and plotted as a function of exposure time before exposure or after exposure to antibiotics.
Because β-lactam antibiotics kill only bacteria that are dividing, we hypothesized that the ability of these drugs to induce the SOS response, and consequently delay cell division by increasing the expression of sfiA, may provide temporary protection from β-lactam lethality.
The experiments shown in FIG. 4 were repeated with the antibiotics: naladixic acid, at 5 μg/ml; pipericillin, at 1 μg/ml; and kanamycin at 5 μg/ml. As shown in FIGS. 5A-5C, the black squares are wild type cells, strain SC1088, the green circles are the dpiA null strain in that background, and the red diamonds are the recA mutation in that background.

The test system of test [2] is pabA promoter (gene up-regulated by DpiA). Description: pabA/lacZ fusion (pHI1627), β-galactosidase production. The test is classed as cell-based, E. coli. The conditions noted are these: ampicillin 10 μg/ml, 2 hours, 37° C. From the text: A library of E. coli promoters fused to a lacZ gene fragment was constructed as follows: SC1088 chromosomal DNA was partially digested with Sau3AI and 1-2 kb fragments were gel extracted, purified, and ligated to the BamHI site of pHI1496, a lacZ expression vector conferring chloramphenicol resistance (S1). […] Three clones were sequenced and found to contain a 5 kb insert in which the melR promoter region was fused to lacZ (pHI1626), a 300 bp fragment that includes the promoter region of pabA (pHI1627), and a 2.5 kb insert containing the 57-minute region of the E. coli chromosome (pHI1628).

Another test deals with dpiBA transcripts. The test is described as follows: quantitative RT-PCR of dpiBA transcripts. The conditions noted are these: SC1088, 30° C., ampicillin 4 μg/ml for 4 hours (FIG. 1C). In kind it is cell-based, E. coli.
From the text: as §1

Test [3] has as its system dpiB promoter (dpiBA operon). Description: dpiB/lacZ reporter fusion (pHI1508), β-galactosidase synthesis. The test is classed as cell-based, E. coli. The conditions noted are these: for expression of the dpi operon (lacZ reporter fusion to the dpiB promoter): E. coli UT481 pHI1508, 30° C., antibiotics at approximately twice the MIC (FIG. 2A). The procedure: FIGS. 2A-2C. […] (A) Expression of the dpi operon as measured in lacZ^− E. coli strain UT481 by a lacZ reporter fusion to the dpiB promoter on pHI1508 [in Miller units]. Bacteria were grown at 30° C. with or without (black squares) antibiotics. […] All antibiotics were added at approximately twice the MIC value for E. coli. All points represent the average of at least three separate experiments. (B) Induction of dpiB/lacZ (as measured by β-galactosidase expression calculated in Miller units) in E. coli JOE339, a lacZ^− mutant strain that carries an ftsl^ts mutation. […] (C) Same as (B) but in MC4100, the parent of JOE339. For (B) and (C), bars indicate SD.
We wished to identify stimuli that activate the dpiBA operon; to monitor such activation, we fused a Hind III-Sma I DNA segment containing the region 5′ to dpiB to a lacZ reporter gene fragment (pHI1508 in FIG. 1A) pHI1508 carries a HindIII-SmaI fragment containing the dpiBA operator/promoter and the first 1219 nucleotides of dpiB (indicated by the heavy bar), inserted into the StuI-HindIII sites of pHI1496, fusing it to the lacZ reporter gene (S1). β-Galactosidase synthesis from this construct was investigated under a variety of growth-limiting conditions known to activate two-component systems and/or the SOS response (including growth in media containing different carbon sources; starvation for O2, PO4, or carbon; heat or cold shock; high salt; exposure to ultraviolet light; culture in stationary phase or in conditioned media; and concentration to a high cell density).

Test [4] deals with dpiB promoter (dpiBA operon). Described as above. The conditions noted are these: ampicillin 10 μg/ml, 2 hours, 37° C. In kind it is cell-based, E. coli.
The test system of test [5] is SOS-regulated promoter of the sfiA gene. The test is described as follows: sfiA/lacZ fusion, measure of SOS response. In kind it is cell-based, E. coli. The source says:
FIGS. 3A-3B. SOS response induced by PBP3 inactivation. […] Both (A) and (B) are averages of three separate experiments. Strains were constructed by P1 transduction. Strain 1088 was transduced with phage P1 from E. coli strains containing recA::Tn10(S3) and lexA71::Tn5 (from Mary Berlyn, CGSC). Strain BR5171 is BR3151 (S4) containing a kanamycin resistance gene introduced into the dpiA locus to create a null mutation; another BR3151 derivative, BR7171, contains a Tn10 insertion in the recA locus to create a null mutation. […] An sfiA/lacZ fusion closely linked to a kanamycin resistance marker (S5) was incorporated into the chromosome of ftsIts strain JOE339 and a JOE339 derivative containing a chloramphenicol resistance gene in the dpiA gene (S1).
A biological consequence of DpiA overexpression is induction of the SOS response; the extent of such induction can be determined by β-galactosidase synthesis from a lacZ fusion with the SOS-regulated promoter of the sfiA gene [e.g. Bacolla et al. (2001) J. Biol. Chem. 276, 18579; Hendricks et al. (2000) Mol. Microbiol. 36, 973], which prevents FtsZ polymerization and inhibits cell division when SOS is activated.
The dependence of β-lactam/PBP3-mediated SOS induction on dpiA contrasted with the lack of effect of the dpiA mutation on RecA expression induced by the DNA damaging agent mitomycin C, indicating the distinctive nature of the cell wall-mediated and DNA damage-mediated paths to SOS induction.

A further test concerns E. coli PBPs. The conditions noted are these: cited from earlier work.

Consider `CC1(C)S[C@@H]2[C@H](NC(=O)[C@H](N)c3ccccc3)C(=O)N2[C@H]1C(=O)O` [ampicillin], for which, in the test with citC gene, the “increase in expression of citC gene” value is listed as “threefold”. Further, the RecA protein increase result is “no increase” with RecA protein (dpiA::Km null mutant) and 1.9±0.4 fold in the test on RecA protein (wt strain 1088, 4 μg/ml). Moreover, the “cells unable to form colonies” value in test [1] (cells mutated in dpiA, recA, or sfiA, 1 hour exposure, 3 μg/ml) was 90%. For the same compound, the “exposure required for the same extent of killing (90%) of wild-type cells” value in test [1] (3 μg/ml) is 4 h; in [1] (9 μg/ml) it was 1 h. Besides, the β-Galactosidase production in test [2] (WT strain 1088 + pHI1627) worked out at 185 ± 20 Miller units; in [2] (dpiA null mutant + pHI1627) it was 18 ± 1 Miller units; in [4] (WT strain 1088 + pHI1508) it was 345 ± 50 Miller units; in test [4] (dpiA null mutant + pHI1508), 113 ± 15 Miller units; in test [4] (lexA null mutant + pHI1508), 110 ± 10 Miller units; in test [4] (recA null mutant + pHI1508), 80 ± 8 Miller units. For the same compound, in the test on dpiBA transcripts, the “increase in dpiBA transcripts” value is given as “fourfold”. Also, the “expression of the dpi operon (lacZ reporter fusion to the dpiB promoter)” value (“expression of the dpi operon” below) in [3] is given as “stimulated”. Besides, the “induction of the dpi operon” value in test [3] (ampicillin resistant bacteria carrying a plasmid borne gene encoding β-lactamase) was “not observed”. In test [5] (BR3151, ampicillin 4 μg/ml (FIG. 3A)), the “lacZ expression from sfiA/lacZ fusion” value was “increased lacZ expression”. Besides, in test [5] (bacteria containing a dpiA null mutation, ampicillin 4 μg/ml (FIG. 3A)), the sfiA/lacZ expression entry is “no change”. In addition, the “effect on expression of the sfiA/lacZ fusion” value in test [5] (recA or lexA mutants, ampicillin treatment (FIG. 3A)) is “prevented the effects”. Further, the “binding to E. coli PBPs” value in the test with E. coli PBPs is given as “binds to all 12 E. coli PBPs”.
Turning to `CO/N=C(\C(=O)N[C@@H]1C(=O)N2C(C(=O)O)=C(COC(N)=O)CS[C@H]12)c1ccco1` [cefuroxan], in test [3], the “expression of the dpi operon” value is recorded as “stimulated”.
For the compound `CC1=C(C(=O)O)N2C(=O)[C@@H](NC(=O)[C@H](N)c3ccccc3)[C@H]2SC1` [cephalexin], the “expression of the dpi operon” value in [3] was “stimulated”. In addition, in the test with E. coli PBPs, the “binding to E. coli PBPs” value is “bind only to PBP3”.
On to `CO[C@@]12[C@H](COC(N)=O)C3=C(C(=O)C(C)=C(N)C3=O)N1C[C@@H]1N[C@@H]12` [mitomycin C], for which the RecA protein increase in the test on RecA protein (dpiA::Km null mutant) is 2.0±0.3 fold; in the test on RecA protein (wt strain 1088, 4 μg/ml), 1.5±0.2 fold.
As for `CCn1cc(C(=O)O)c(=O)c2ccc(C)nc21` [nalidixic acid], the “effectiveness (survival) in recA mutant cells versus wild type SC1088” value in test [1] is “more effective”.
Turning to `CCN1CCN(C(=O)N[C@@H](C(=O)N[C@@H]2C(=O)N3[C@@H]2SC(C)(C)[C@@H]3C(=O)O)c2ccccc2)C(=O)C1=O` [pipericillin], the “survival relative to the number before addition of antibiotic” value in [1] (dpiA mutant bacteria, overnight exposure, 2 μg/ml) is listed as 0.001%; in test [1] (wild-type bacteria, overnight exposure, 2 μg/ml), 0.01%. The “effectiveness (survival) in recA mutant cells versus wild type SC1088” value in [1] is “more effective”. In addition, the “surviving wild-type bacteria versus dpiA mutant bacteria” value in [1] (overnight exposure, 2 μg/ml) came out at 10 times. The “expression of the dpi operon” value in test [3] is “stimulated”. For the same compound, the “binding to E. coli PBPs” value with E. coli PBPs was “bind only to PBP3”.
Consider penicillin, for which, in test [3], the “expression of the dpi operon” value is given as “stimulated”.
